Reference: patent US11524966B1 (Valo Early Discovery, Inc., priority 2017, dated 2022)

Biological target: T1, USP25 (USP25-His6, Boston Biochem E-546) (Homo sapiens, UniProt Q9UHP3)
T1 construct: His6; purchased Boston Biochem E-546
T1 sequence (Q9UHP3 1-1055): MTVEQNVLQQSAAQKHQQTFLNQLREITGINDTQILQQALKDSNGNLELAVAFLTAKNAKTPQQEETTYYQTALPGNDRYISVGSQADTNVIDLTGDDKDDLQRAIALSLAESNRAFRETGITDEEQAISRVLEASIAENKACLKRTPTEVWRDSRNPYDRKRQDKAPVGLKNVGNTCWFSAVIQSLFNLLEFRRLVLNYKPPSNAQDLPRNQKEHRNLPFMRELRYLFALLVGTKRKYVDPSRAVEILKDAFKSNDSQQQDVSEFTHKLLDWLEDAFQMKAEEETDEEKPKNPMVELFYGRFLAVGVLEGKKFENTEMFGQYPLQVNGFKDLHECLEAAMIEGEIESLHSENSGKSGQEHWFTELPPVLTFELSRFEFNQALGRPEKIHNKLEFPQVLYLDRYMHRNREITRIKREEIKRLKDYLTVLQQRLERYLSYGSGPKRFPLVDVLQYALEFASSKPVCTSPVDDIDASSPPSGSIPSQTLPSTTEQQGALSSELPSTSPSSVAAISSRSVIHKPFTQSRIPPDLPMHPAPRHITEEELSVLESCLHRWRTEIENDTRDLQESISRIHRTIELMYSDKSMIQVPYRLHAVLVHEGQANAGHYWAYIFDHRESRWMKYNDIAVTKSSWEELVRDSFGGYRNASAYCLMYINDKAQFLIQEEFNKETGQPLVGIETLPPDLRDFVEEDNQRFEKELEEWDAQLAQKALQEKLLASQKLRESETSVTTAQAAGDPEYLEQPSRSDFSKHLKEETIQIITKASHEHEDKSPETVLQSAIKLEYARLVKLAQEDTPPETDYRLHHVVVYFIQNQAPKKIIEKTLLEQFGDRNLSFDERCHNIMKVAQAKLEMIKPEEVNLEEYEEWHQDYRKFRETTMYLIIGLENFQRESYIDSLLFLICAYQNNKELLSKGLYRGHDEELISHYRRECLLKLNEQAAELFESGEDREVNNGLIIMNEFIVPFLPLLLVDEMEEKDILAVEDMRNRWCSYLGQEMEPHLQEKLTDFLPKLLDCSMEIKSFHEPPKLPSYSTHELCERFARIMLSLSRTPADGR
Assay: Ubiquitin-Rhodamine 110 Assay for USP25 Activity, Example A-2
Type: biochemical
Conditions: Ub-Rh110 assay, Example A-2; read-out: USP25 A-2 IC50 range
Method: The assay was performed in a final volume of 9 μL in assay buffer containing 20 mM Tris-HCl (pH 8.0, (1M Tris-HCl, pH 8.0 solution; Corning 46-031-CM)), 3 mM BME (2-Mercaptoethanol; Sigma 63689-25ML-F), 0.03% BGG (0.22 μM filtered, Sigma, G7516-25G), and 0.01% Triton X-100 (Sigma, T9284-10L). Nanoliter quantities of 10-point, 3-fold serial dilution in DMSO was pre-dispensed into 1536 assay plates (Corning, #3724BC) for a final test concentration of 25 μM to 1.3 nM, top to lowest dose, respectively. Enzyme USP25, construct USP25-His6, (Boston Biochem E-546). Concentration and incubation times were optimized for the maximal signal-to-background while maintaining initial velocity conditions at a fixed substrate concentration. The final concentration of the enzyme in the assay was 75 pM. Final substrate (Ub-Rh110; Ubiquitin-Rhodamine 110, R&D Systems #U-555) concentration was 25 nM with [Ub-Rh110]<<Km. 3 μL of 2× enzyme was added to assay plates (pre-stamped with compound) preincubated with […] for 30 minutes and then 3 μL of 2×Ub-Rh110 was added to assay plates. Plates were incubated for 45 minutes at room temperature before addition of 3 μL of stop solution (final concentration of 10 mM citric acid (Sigma, 251275-500G)). Fluorescence was read on the Envision (Excitation at 485 nm and Emission at 535 nm; Perkin Elmer) or on the PheraSTAR (Excitation at 485 nm and Emission at 535 nm; BMG Labtech).
IC50 values were determined by curve fitting of the standard 4 parameter logistic fitting algorithm included in the Activity Base software package: IDBS XE Designer Model 205. Data is fitted using the Levenburg Marquardt algorithm.

SMILES | IC50 [nM]
Cc1nc2sc(C(=O)N[C@H]3COc4cc(N5CCNCC5)cc(F)c4C3)c(N)c2s1 (single isomer, unassigned) [Example 1-37] | > 2000
Cc1nc2sc(C(=O)N[C@@H]3COc4cc(N5CCNCC5)cc(F)c4C3)c(N)c2s1 (single isomer, unassigned) [Example 1-38] | 200 to 2000
Cc1nc2sc(C(=O)N[C@H]3COc4cc(N5CC6CCC(C5)N6)cc(F)c4C3)c(N)c2s1 (single isomer, unassigned) [Example 1-39] | 200 to 2000
Cc1nc2sc(C(=O)N[C@@H]3COc4cc(N5CC6CCC(C5)N6)cc(F)c4C3)c(N)c2s1 (single isomer, unassigned) [Example 1-40] | > 2000
Cc1ccc2c(N)c(C(=O)N[C@@H]3COc4cc(N5CC6CC(C5)N6)cc(F)c4C3)sc2n1 (single isomer, unassigned) [Example 1-41] | 50 to 200
Cc1ccc2c(N)c(C(=O)N[C@H]3COc4cc(N5CC6CC(C5)N6)cc(F)c4C3)sc2n1 (single isomer, unassigned) [Example 1-42] | > 2000
Cc1cnc2c(N)c(C(=O)N[C@H]3CCc4cc(N5CCNCC5)c(C)cc4C3)sc2n1 (single isomer, unassigned) [Example 2-34] | > 2000
Cc1cnc2c(N)c(C(=O)N[C@@H]3CCc4cc(N5CCNCC5)c(C)cc4C3)sc2n1 (single isomer, unassigned) [Example 2-35] | > 2000
Cc1cnc2c(N)c(C(=O)N[C@H]3CCc4c(ccc(N5CCNCC5)c4C)C3)sc2n1 (single isomer, unassigned) [Example 2-36] | > 2000
Cc1cnc2c(N)c(C(=O)N[C@@H]3CCc4c(ccc(N5CCNCC5)c4C)C3)sc2n1 (single isomer, unassigned) [Example 2-37] | 200 to 2000
CO[C@H]1CN(c2ccc3c(c2)OC[C@H](NC(=O)c2sc4nc(C)ccc4c2N)C3)C[C@@H]1N (single isomer, unassigned) [Example 3-1] | 200 to 2000
CO[C@@H]1CN(c2ccc3c(c2)OC[C@H](NC(=O)c2sc4nc(C)ccc4c2N)C3)C[C@H]1N (single isomer, unassigned) [Example 3-2] | 200 to 2000
Cc1ccc2c(N)c(C(=O)N[C@H]3COc4cc(N5CCC[C@@](N)(C(F)(F)F)C5)ccc4C3)sc2n1 (single isomer, unassigned) [Example 3-3] | 50 to 200
Cc1ccc2c(N)c(C(=O)N[C@H]3COc4cc(N5CCC[C@](N)(C(F)(F)F)C5)ccc4C3)sc2n1 (single isomer, unassigned) [Example 3-4] | 200 to 2000
Cc1nc2sc(C(=O)N[C@H]3COc4cc(N5CC6CCC(C5)N6)ccc4C3)c(N)c2s1 [Example 1-23, N-((3R)-7-(3,8-diazabicyclo[3.2.1]octan-3-yl)chroman-3-yl)-6-amino-2-methylthieno[2,3-d]thiazole-5-carboxamide] | 200 to 2000
Cc1nc2sc(C(=O)N[C@@H]3COc4cc(N5CC6CCC(C5)N6)ccc4C3)c(N)c2s1 [Example 1-24, N-((3S)-7-(3,8-diazabicyclo[3.2.1]octan-3-yl)chroman-3-yl)-6-amino-2-methylthieno[2,3-d]thiazole-5-carboxamide] | > 2000
Cc1nc2sc(C(=O)N[C@H]3COc4cc(N5CCNCC5)ccc4C3)c(N)c2s1 [Example 1-25, (R)-6-amino-2-methyl-N-(7-(piperazin-1-yl)chroman-3-yl)thieno[2,3-d]thiazole-5-carboxamide] | 200 to 2000
Cc1nc2sc(C(=O)N[C@@H]3COc4cc(N5CCNCC5)ccc4C3)c(N)c2s1 [Example 1-26, (S)-6-amino-2-methyl-N-(7-(piperazin-1-yl)chroman-3-yl)thieno[2,3-d]thiazole-5-carboxamide] | > 2000
Cc1ccc2c(N)c(C(=O)N[C@H]3COc4c(ccc(N5CCNCC5)c4F)C3)sc2n1 [Example 1-33, (R)-3-amino-N-(8-fluoro-7-(piperazin-1-yl)chroman-3-yl)-6-methylthieno[2,3-b]pyridine-2-carboxamide] | 50 to 200
Cc1ccc2c(N)c(C(=O)N[C@@H]3COc4c(ccc(N5CCNCC5)c4F)C3)sc2n1 [Example 1-34, (S)-3-amino-N-(8-fluoro-7-(piperazin-1-yl)chroman-3-yl)-6-methylthieno[2,3-b]pyridine-2-carboxamide] | > 2000
Cc1ccc2c(N)c(C(=O)N[C@H]3COc4cc(N5CCNCC5)c(F)cc4C3)sc2n1 [Example 1-35, (R)-3-amino-N-(6-fluoro-7-(piperazin-1-yl)chroman-3-yl)-6-methylthieno[2,3-b]pyridine-2-carboxamide] | 200 to 2000
Cc1ccc2c(N)c(C(=O)N[C@@H]3COc4cc(N5CCNCC5)c(F)cc4C3)sc2n1 [Example 1-36, (S)-3-amino-N-(6-fluoro-7-(piperazin-1-yl)chroman-3-yl)-6-methylthieno[2,3-b]pyridine-2-carboxamide] | > 2000
Cc1ccc2c(N)c(C(=O)N[C@H]3COc4cc(N5CC6CNCC(C5)C6(F)F)ccc4C3)sc2n1 [Example 2-1, 3-Amino-N-((3R)-7-(9,9-difluoro-3,7-diazabicyclo[3.3.1]nonan-3-yl)chroman-3-yl)-6-methylthieno[2,3-b]pyridine-2-carboxamide] | 1 to 50
Cc1ccc2c(N)c(C(=O)N[C@H]3COc4cc(N5CC6CC(C5)N6)ccc4C3)sc2n1 [Example 2-2, N-((3R)-7-(3,6-diazabicyclo[3.1.1]heptan-3-yl)chroman-3-yl)-3-amino-6-methylthieno[2,3-b]pyridine-2-carboxamide] | 50 to 200
Cc1ccc2c(N)c(C(=O)N[C@@H]3COc4cc(N5CC6CC(C5)N6)ccc4C3)sc2n1 [Example 2-3, N-((3S)-7-(3,6-diazabicyclo[3.1.1]heptan-3-yl)chroman-3-yl)-3-amino-6-methylthieno[2,3-b]pyridine-2-carboxamide] | > 2000
Cc1ccc2c(N)c(C(=O)N[C@H]3COc4cc(N5CCNC[C@@H]5C)ccc4C3)sc2n1 [Example 2-4, 3-amino-6-methyl-N-((R)-7-((S)-2-methylpiperazin-1-yl)chroman-3-yl)thieno[2,3-b]pyridine-2-carboxamide] | 1 to 50
Cc1ccc2c(N)c(C(=O)N[C@H]3COc4cc(N5CCNC[C@H]5C)ccc4C3)sc2n1 [Example 2-5, 3-amino-6-methyl-N-((R)-7-((R)-2-methylpiperazin-1-yl)chroman-3-yl)thieno[2,3-b]pyridine-2-carboxamide] | 1 to 50
Cc1ccc2c(N)c(C(=O)N[C@H]3COc4cc(N5C6CCC5CNC6)ccc4C3)sc2n1 [Example 2-6, N-((3R)-7-(3,8-diazabicyclo[3.2.1]octan-8-yl)chroman-3-yl)-3-amino-6-methylthieno[2,3-b]pyridine-2-carboxamide] | 50 to 200
Cc1ccc2c(N)c(C(=O)N[C@H]3COc4cc(N5CCCC56CNC6)ccc4C3)sc2n1 [Example 2-7, (R)-N-(7-(2,5-diazaspiro[3.4]octan-5-yl)chroman-3-yl)-3-amino-6-methylthieno[2,3-b]pyridine-2-carboxamide] | 200 to 2000
Cc1ccc2c(N)c(C(=O)N[C@H]3COc4cc(N5CCN[C@@H](C)C5)ccc4C3)sc2n1 [Example 2-8, 3-amino-6-methyl-N-((R)-7-((S)-3-methylpiperazin-1-yl)chroman-3-yl)thieno[2,3-b]pyridine-2-carboxamide] | 200 to 2000
